Assay results as given in patent publication US8273782B2, “Inhibitors of Akt activity” (GlaxoSmithKline LLC, priority 2007, dated 2012).

Tests used:
[1] = biological target: T1, full length AKT3 (Homo sapiens, UniProt Q9Y243); assay: AKT enzyme assay (substrate phosphorylation, SPA), full length AKT3; format: biochemical; settings: in at least one experimental run; pIC50 = -log(IC50), IC50 in molar units
T1 construct: Full length AKT2 and full length AKT3 were cloned, expressed and purified in a similar fashion; His tag (inferred: made in a similar fashion to AKT1 in pFastbacHTb with nickel purification) (N); made in house; host or cells: baculovirus; insect cells (by analogy with AKT1)
T1 sequence (Q9Y243 whole entry): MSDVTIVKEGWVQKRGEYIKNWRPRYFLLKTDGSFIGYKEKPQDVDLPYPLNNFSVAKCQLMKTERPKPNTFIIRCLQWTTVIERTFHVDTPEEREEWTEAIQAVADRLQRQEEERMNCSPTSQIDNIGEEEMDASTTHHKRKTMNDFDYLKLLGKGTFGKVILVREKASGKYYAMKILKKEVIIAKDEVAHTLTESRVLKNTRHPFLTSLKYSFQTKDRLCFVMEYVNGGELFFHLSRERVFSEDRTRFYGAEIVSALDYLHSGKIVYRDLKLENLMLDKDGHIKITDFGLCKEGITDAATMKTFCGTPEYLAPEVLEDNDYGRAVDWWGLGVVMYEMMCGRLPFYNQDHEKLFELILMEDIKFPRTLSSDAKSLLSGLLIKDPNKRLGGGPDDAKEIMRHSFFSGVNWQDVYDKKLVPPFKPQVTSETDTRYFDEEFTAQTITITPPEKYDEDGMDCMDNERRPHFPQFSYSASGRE
Experimental: Compounds of the present invention are tested for AKT 1, 2, and 3 protein serine kinase inhibitory activity in substrate phosphorylation assays. This assay examines the ability of small molecule organic compounds to inhibit the serine phosphorylation of a peptide substrate. […] AKT 1, 2 and 3 are also commercially available from Upstate USA, Inc. The method measures the ability of the isolated enzyme to catalyze the transfer of the gamma-phosphate from ATP onto the serine residue of a biotinylated synthetic peptide SEQ. […] Substrate phosphorylation is detected by the following procedure:
ATP/well, 1 mM CHAPS, 2 mM DTT, and 1 ul of test compound in 100% DMSO. The reaction is stopped by the addition of 50 ul SPA bead mix (Dulbecco's PBS without Mg^2+ and Ca^2+, 0.1% Triton X-100, 5 mM EDTA, 50 uM ATP, 2.5 mg/ml Streptavidin-coated SPA beads.) The plate is sealed, the beads are allowed to settle overnight, and then the plate is counted in a Packard Topcount Microplate Scintillation Counter (Packard Instrument Co., Meriden, Conn.).
The data for dose responses are plotted as % Control calculated with the data reduction formula 100*(U1−C2)/(C1−C2) versus concentration of compound where U is the unknown value, C1 is the average control value obtained for DMSO, and C2 is the average control value obtained for 0.1M EDTA. […]

[2] = biological target: T2, full length AKT1 (Homo sapiens, UniProt P31749); assay: AKT enzyme assay (substrate phosphorylation, SPA), full length AKT1; format: biochemical; settings: in at least one experimental run; pIC50 = -log(IC50), IC50 in molar units
T2 construct: Full-length human AKT1 gene was amplified by PCR; His tag (from vector pFastbacHTb; N-terminal position is own knowledge of the vector) (N); made in house; host or cells: baculovirus; Sf9 / T. ni insect cells
T2 sequence (P31749 whole entry): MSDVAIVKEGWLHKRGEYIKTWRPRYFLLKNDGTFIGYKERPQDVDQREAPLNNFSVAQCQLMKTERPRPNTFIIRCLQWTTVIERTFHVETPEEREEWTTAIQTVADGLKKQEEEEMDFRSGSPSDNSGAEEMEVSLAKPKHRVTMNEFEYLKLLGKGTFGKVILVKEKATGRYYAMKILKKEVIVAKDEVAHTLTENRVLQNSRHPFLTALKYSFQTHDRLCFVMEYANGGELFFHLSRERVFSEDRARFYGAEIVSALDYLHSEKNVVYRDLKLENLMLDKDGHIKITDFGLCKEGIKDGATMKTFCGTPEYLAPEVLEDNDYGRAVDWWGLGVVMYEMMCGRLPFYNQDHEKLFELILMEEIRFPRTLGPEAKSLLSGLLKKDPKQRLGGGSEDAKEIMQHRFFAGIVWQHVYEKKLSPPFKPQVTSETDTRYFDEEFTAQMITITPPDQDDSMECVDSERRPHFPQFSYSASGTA

Cn1ncc(Cl)c1-c1cc(C(=O)N[C@H](CN)Cc2cccc(F)c2)oc1Cl [Example 137, N-{(1S)-2-amino-1-[(3-fluorophenyl)methyl]ethyl}-5-chloro-4-(4-chloro-1-methyl-1H-pyrazol-5-yl)-2-furancarboxamide]
pIC50 value against full length AKT3 [1]: 8.4
pIC50 value against full length AKT1 [2]: 9.0

Cc1sc(C(=O)N[C@H](CN)Cc2cccc(F)c2)cc1-c1c(Cl)cnn1C [Example 161, N-{(1S)-2-amino-1-[(3-fluorophenyl)methyl]ethyl}-4-(4-chloro-1-methyl-1H-pyrazol-5-yl)-5-methyl-2-thiophenecarboxamide]
pIC50 value against full length AKT3 [1]: 7.6
pIC50 value against full length AKT1 [2]: 8.8
